Measured values reported in patent US20090069324A1, “CHEMICAL INHIBITORS OF BFL-1 AND RELATED METHODS” (The Burnham Institute, priority 2007, published 2009).
“And” between values parts separate entries of the source, which are not always exact repeats. Equal entries are not always repeated.

Tests used:
[1] = target: T1, Bfl-1 (Homo sapiens, UniProt Q16548); test: Bfl-1 fluorescence polarization assay (FPA/FP), competition with FITC-Bid BH3 peptide; assay type: binding; conditions: for Bfl-1 FP assay, activity in words: Bfl-1/FITC-Bid
T1 construct: lacking their C-terminal transmembrane domains (approximately last 20 amino-acids); made in house; host or cells: XL-1 Blue cells (E. coli), pGEX 4T-1
T1 sequence (Q16548 1-155 limits assumed): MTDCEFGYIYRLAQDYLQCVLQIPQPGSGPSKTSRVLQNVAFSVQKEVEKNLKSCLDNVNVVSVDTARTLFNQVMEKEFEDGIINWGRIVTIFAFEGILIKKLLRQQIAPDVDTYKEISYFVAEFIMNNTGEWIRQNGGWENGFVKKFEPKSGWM
Procedure: Fluorescence polarization assays (FPA). To determine the binding affinity of anti-apoptotic Bcl-2 polypeptides to FITC-conjugated Bid BH3 peptide, fluorescence polarization assays (FPAs) were performed according to published procedures (Zhai et al., Biochem. J. 376:229-236 (2003)). […] Fluorescence polarization was measured after 10 min using an Analyst™ AD Assay Detection System (LJL Biosystem, Sunnyvale, Calif.) in phosphate-buffered saline (PBS) (pH 7.4). The IC50 determinations were performed using GraphPad Prism software (GraphPad, Inc., San Diego, Calif.).
Competition assays. Using the same procedure outlined above, 100 nM of GST-Bfl-1 protein were incubated with the compounds at 50 μM concentration for 30 min. Then, 5 nM of FITC-Bid BH3 peptide was added. Fluorescence polarization was measured after 10 min. […]

[2] = target: T1, Bfl-1; test: Bfl-1 TR-FRET assay (FITC-Bid, Tb-anti-GST antibody); assay type: binding; conditions: for Bfl-1 TR-FRET assay, activity in words: Bfl-1/FITC-Bid
Procedure: TR-FRET assay. For confirmation of FPA results, a TR-FRET assay utilizing terbium- (Tb-) labeled anti-GST antibody (Th-Ab) was developed. […] The reaction mixture was preincubated for 1 h, and TR-fluorescence (TRF) was measured on an M5 plate reader (Molecular Devices) using excitation at 340 nm and emission at […]. The measurements were averaged from 5 readings during 1 ms after an initial delay 0.1 ms. TR-FRET signal was calculated as the ratio of TR-Fluorescence at 520 nm to TR-Fluorescence at […].
For Bfl-1 TR-FRET assays, Bfl-1 protein and FITC-Bid peptide (FITC-Ahx-[…]) (SEQ ID NO: 1) were utilized. Terbium-anti-GST antibody (Tb-anti-GST Ab) was obtained from Invitrogen (San Diego Calif.). The assay buffer contained 25 mM Bis-Tris, pH 7.0, 1 mM TCEP, and 0.005% Tween 20. The Tb-Ab buffer contained 2.5 nM Tb-anti-GST antibody in assay buffer. The Bfl-1/Th-Ab working solution contained 5 nM Bfl-1 in Th-Ab assay buffer. The solution was prepared fresh and kept on ice prior to use. The FITC-Bid working solution contained 5.6 nM FITC-Bid in assay buffer.
For the Bfl-1 TR-FRET dose-response screening protocol, dose-response curves contained 10 concentrations of compounds obtained using 2-fold serial dilution. Compounds were serially diluted in 100% DMSO, and then diluted with water to 10% final DMSO concentration. A 4 μl aliquot of compounds in 10% DMSO was transferred into columns 3-22 of Greiner 384-well white small-volume plates. Columns 1-2 and 23-24 contained 4 μL of 10% DMSO.
Columns 1-2 were reserved for positive controls, and 8 μL of Th-Ab buffer was added using a WellMate bulk dispenser (Matrix). An aliquot of 8 μL of Bfl-1/Th-Ab working solution was added to columns 3-24 of Greiner 384 well white plates using a WellMate bulk dispenser (Matrix). Columns 23-24 represented negative control wells. Plates were incubated for 1 h at 4° C. An 8 μL aliquot of freshly prepared FITC-Bid working solution was added to the whole plate using WellMate bulk dispenser (Matrix). Plates were incubated for 4 h at room temperature protected from direct light. Fluorescence was measured on the M5 plate reader (excitation: 340 nm, emission: 490 and 520 nm, cutoff: 475 and 515 nm, respectively) in Time Resolved (TR) mode with signal integrated for 1 ms after initial delay of 0.1 ms. TR-FRET signal was calculated as the ratio of TR-Fluorescence at 520 nm to TR-Fluorescence at 490 nm. Data analysis was performed using a sigmoidal dose-response equation through non-linear regression.

[3] = Tables 7-8, Avg where the cell lists several determinations, read-out: Bfl-1 FPA IC50
[4] = Tables 7-8, Avg where the cell lists several determinations, read-out: Bfl-1 TR-FRET IC50
[5] = Tables 3-5, read-out: Bfl-1 FP IC50
[6] = Tables 3-5, read-out: Bfl-1 TR FRET IC50
[7] = Tables 7-8, Avg where the cell lists several determinations
[8] = Tables 7-8, single values listed before the Avg, read-out: Bfl-1 FPA IC50 (uM), individual determinations
[9] = Tables 7-8, single values listed before the Avg, read-out: Bfl-1 TR-FRET IC50 (uM), individual determinations

Structure (SMILES) | IC50 [2, 4] [µM] | IC50 [1, 5] [µM] | IC50 [2, 6] [µM] | other results
CCOC(=O)CCS(=O)(=O)c1nc(-c2ccccc2)cc(C(F)(F)F)n1 [Compound 7914223] | 4 | – | – | IC50 [1, 3]: 7.9 µM
COc1ccccc1-c1cc(C(F)(F)F)nc(S(=O)(=O)CCCC(=O)N2CCOCC2)n1 [Compound 7990929] | 19.1 | – | – | IC50 [1, 3]: 21.5 µM
C[C@H]1CN(C2=C(Cl)C(=O)N(c3ccc(Cl)c(Cl)c3)C2=O)CCN1 [MLS-0090858] | – | 1.32 | 1.25 | –
COc1ccccc1-c1cc(C(F)(F)F)nc(S(=O)(=O)CCCC(=O)Nc2cc(C)on2)n1 [Compound C071-0415] | – | – | – | Bfl-1 FPA IC50 (uM) [1, 7]: nodisplacement; Bfl-1 TR-FRET IC50 (uM) [2, 7]: nodisplacement
Cc1ccc(Cl)c(N2C(=O)C(Cl)=C(N3CCN(C)CC3)C2=O)c1Cl [MLS-0090832] | – | 23.9 | 11.1 | –
CN1CCN(C2=CC(=O)N(c3ccc(Cl)cc3)C2=O)CC1 [MLS-0066987] | – | – | – | Bfl-1 FP assay, activity in words [1]: inactive; Bfl-1 TR-FRET assay, activity in words [2]: inactive
COc1ccccc1-c1cc(C(F)(F)F)nc(S(=O)(=O)CCCC(=O)NC(C)C)n1 [Compound C071-0355] | – | – | – | Bfl-1 FPA IC50 (uM) [1, 7]: nodisplacement; Bfl-1 TR-FRET IC50 (uM) [2, 7]: nodisplacement
O=C1C(Cl)=C(N2CCCC2)C(=O)N1c1ccc(Cl)c(Cl)c1 [MLS-0067126] | – | – | – | Bfl-1 FP IC50 (uM) ([1]; Tables 3-5): no fit; Bfl-1 TR FRET IC50 (uM) ([2]; Tables 3-5): no fit
O=C1C(Cl)=C(N2CCN(c3ncccn3)CC2)C(=O)N1c1ccc(Cl)c(Cl)c1 [MLS-0090868] | – | 1.9 | 2.46 | –
C[C@@H]1CN(C2=C(Cl)C(=O)N(c3ccc(Cl)c(Cl)c3)C2=O)CCN1 [MLS-0090857] | – | 1.16 | 1.03 | –
O=C1C(Cl)=C(N2CCOCC2)C(=O)N1c1ccc(Cl)c(Cl)c1 [MLS-0067124] | – | 1.41 | – | IC50 ([1]; text b265, read-out: IC50 in the FP assay): 1.4 µM; IC50 ([2]; text b265, read-out: IC50 in the TR-FRET assay): 1.14 µM
CCOC(=O)CS(=O)(=O)c1nc(-c2ccc(F)cc2)cc(C(F)(F)F)n1 [Compound 7979975] | 1.78 | – | – | IC50 [1, 8]: 1.98 µM and 1.27 µM and 0.695 µM and 1.72 µM and 0.866 µM and 3.33 µM and 4.4 µM and 6.43 µM; IC50 [2, 9]: 1.37 µM and 0.59 µM and 1.5 µM and 2.79 µM and 1.03 µM and 3.41 µM
CS(=O)(=O)c1nc(-c2cccs2)cc(C(F)(F)F)n1 [Compound C164-0005] | 15.6 | – | – | IC50 [1, 3]: 6.3 µM
COc1ccc(-c2cc(C(F)(F)F)nc(S(C)(=O)=O)n2)c(OC)c1 [Compound C164-0014] | 6.38 | – | – | IC50 [1, 3]: 25.1 µM; IC50 [1, 8]: 40.7 µM and 5.92 µM and 27.2 µM and 28.8 µM and 22.9 µM; IC50 [2, 9]: 5.29 µM and 3.73 µM and 10.1 µM
O=C1C(Cl)=C(N2CCN(Cc3ccc4c(c3)OCO4)CC2)C(=O)N1c1ccc(Cl)c(Cl)c1 [MLS-0090865] | – | 4.07 | 2.14 | –
COc1ccc(N2C(=O)C(Cl)=C(Nc3c(C)n(C)n(-c4ccccc4)c3=O)C2=O)cc1 [Compound 3453-0809] | > 100 | – | – | IC50 [1, 3]: 82.2 µM
COCC(C)NC(=O)CCS(=O)(=O)c1nc(-c2ccc(OC)cc2)cc(C(F)(F)F)n1 (centres unmarked) [BAS03664947] | 19.6 | – | – | IC50 [1, 3]: 20.6 µM
CCN1CCN(C2=C(Cl)C(=O)N(c3ccc(Cl)c(Cl)c3)C2=O)CC1 [MLS-0090860] | – | 1.67 | 0.97 | –
O=C1C(Cl)=C(N2CCCCC2)C(=O)N1c1ccc(Cl)c(Cl)c1 [MLS-0066990] | – | – | 1.3 | Bfl-1 FP IC50 (uM) ([1]; Tables 3-5): no fit

Structure (SMILES) | IC50 [2, 4] [µM] | IC50 [1, 5] [µM] | IC50 [2, 6] [µM] | other results
O=C1C(Cl)=C(Nc2ccccc2)C(=O)N1c1ccc(Cl)c(Cl)c1 [MLS-0067128] | – | – | – | Bfl-1 FP IC50 (uM) ([1]; Tables 3-5): no fit; Bfl-1 TR FRET IC50 (uM) ([2]; Tables 3-5): no fit
O=C1C(Cl)=C(N2CCN(C/C=C/c3ccccc3)CC2)C(=O)N1c1ccc(Cl)c(Cl)c1 [MLS-0090859] | – | 0.59 | 0.73 | –
CN1CCN(C2CC(=O)N(c3ccc(Cl)c(Cl)c3)C2=O)CC1 (centres unmarked) [MLS-0066991] | – | – | – | Bfl-1 FP assay, activity in words [1]: inactive; Bfl-1 TR-FRET assay, activity in words [2]: inactive
CCOC(=O)CS(=O)(=O)c1nc(-c2ccccc2)cc(C(F)(F)F)n1 [Compound 7663066] | 2.91 | – | – | IC50 [1, 3]: 4.64 µM; IC50 [1, 8]: 2.63 µM and 2.4 µM and 5.42 µM and 8.1 µM; IC50 [2, 9]: 1.18 µM and 4.63 µM
CN1CCN(C2=C(Cl)C(=O)N(c3cccc(Cl)c3Cl)C2=O)CC1 [MLS-0090831] | – | 8.74 | 2.56 | –
CN1CCN(C2=C(Cl)C(=O)N(c3cccc(Cl)c3)C2=O)CC1 [MLS-0090834] | – | 2.15 | 1.17 | –
O=C1C(Cl)=C(N2CCN(Cc3ccccc3)CC2)C(=O)N1c1ccc(Cl)c(Cl)c1 [MLS-0090866] | – | 1.62 | 1.64 | –
O=C1C(Cl)=C(N2CCN(CCO)CC2)C(=O)N1c1ccc(Cl)c(Cl)c1 [MLS-0090874] | – | 0.56 | 0.59 | –
CN1CCN(C2=C(Cl)C(=O)N(c3c(Cl)cccc3Cl)C2=O)CC1 [MLS-0090830] | – | 13.7 | 3.72 | –
Cc1cc(NC(=O)CCS(=O)(=O)c2nc(-c3ccccc3)cc(C(F)(F)F)n2)no1 [Compound 7979496] | 9.2 | – | – | IC50 [1, 3]: 14.6 µM
Cc1cc(NC(=O)CCCS(=O)(=O)c2nc(-c3cccs3)cc(C(F)(F)F)n2)no1 [Compound C071-0649] | 11.4 | – | – | IC50 [1, 3]: 40.4 µM
CS(=O)(=O)c1nc(-c2ccco2)cc(C(F)(F)F)n1 [Compound C164-0006] | 6 | – | – | IC50 [1, 3]: 7.2 µM
CN1CCN(C2=C(Cl)C(=O)N(c3ccc(Cl)cc3Cl)C2=O)CC1 [MLS-0090829] | – | 2.62 | 1.36 | –
COCCNC1=C(Cl)C(=O)N(c2ccc(Cl)c(Cl)c2)C1=O [MLS-0067127] | – | 12.6 | 4.96 | –
CN1CCN(C2=C(Cl)C(=O)N(c3cc(Cl)cc(Cl)c3)C2=O)CC1 [MLS-0090828] | – | 2.44 | 1.66 | –
COc1ccccc1-c1cc(C(F)(F)F)nc(S(=O)(=O)CCCC(=O)N2CCCCC2C)n1 (centres unmarked) [Compound C071-0367] | 12.8 | – | – | IC50 [1, 3]: 14.7 µM
CN1CCN(C2=C(Cl)C(=O)N(c3ccccc3Cl)C2=O)CC1 [MLS-0090833] | – | 2.16 | 1.45 | –
CC1C(=O)NCCN1C1=C(Cl)C(=O)N(c2ccc(Cl)c(Cl)c2)C1=O (centres unmarked) [MLS-0090884] | – | 5.63 | 2.03 | –
